# Patent EP3212201B1, “NUCLEOSIDE KINASE INHIBITORS” (BCI Pharma, priority 2014, dated 2016)
# Assays:
# Test in all cases: FRET-based coupled-enzyme protein kinase inhibition assay
# Assay type in all cases: biochemical
# Details in all cases: compound at 10 µM, 1% DMSO
# [1] = target: BTK (Homo sapiens, UniProt Q06187)
# Summary of the method: (§1)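 FRET peptide (coumarin donor, fluorescein acceptor) was phosphorylated by each kinase in 50 mM HEPES pH 7.5, 10 mM MgCl2, 1 mM EDTA, 0.01% BRIJ-35 for 60 min at room temperature. ATP was at apparent Km, compounds in 1% DMSO. Protease development reagent then cleaved non-phosphorylated peptide over 60 min.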
# [2] = target: EPHA2 (Homo sapiens, UniProt P29317)
# Summary of the method: as §1
# [3] = target: T1, JAK3 (Homo sapiens, UniProt P52333)
# T1 sequence (P52333 1-1124): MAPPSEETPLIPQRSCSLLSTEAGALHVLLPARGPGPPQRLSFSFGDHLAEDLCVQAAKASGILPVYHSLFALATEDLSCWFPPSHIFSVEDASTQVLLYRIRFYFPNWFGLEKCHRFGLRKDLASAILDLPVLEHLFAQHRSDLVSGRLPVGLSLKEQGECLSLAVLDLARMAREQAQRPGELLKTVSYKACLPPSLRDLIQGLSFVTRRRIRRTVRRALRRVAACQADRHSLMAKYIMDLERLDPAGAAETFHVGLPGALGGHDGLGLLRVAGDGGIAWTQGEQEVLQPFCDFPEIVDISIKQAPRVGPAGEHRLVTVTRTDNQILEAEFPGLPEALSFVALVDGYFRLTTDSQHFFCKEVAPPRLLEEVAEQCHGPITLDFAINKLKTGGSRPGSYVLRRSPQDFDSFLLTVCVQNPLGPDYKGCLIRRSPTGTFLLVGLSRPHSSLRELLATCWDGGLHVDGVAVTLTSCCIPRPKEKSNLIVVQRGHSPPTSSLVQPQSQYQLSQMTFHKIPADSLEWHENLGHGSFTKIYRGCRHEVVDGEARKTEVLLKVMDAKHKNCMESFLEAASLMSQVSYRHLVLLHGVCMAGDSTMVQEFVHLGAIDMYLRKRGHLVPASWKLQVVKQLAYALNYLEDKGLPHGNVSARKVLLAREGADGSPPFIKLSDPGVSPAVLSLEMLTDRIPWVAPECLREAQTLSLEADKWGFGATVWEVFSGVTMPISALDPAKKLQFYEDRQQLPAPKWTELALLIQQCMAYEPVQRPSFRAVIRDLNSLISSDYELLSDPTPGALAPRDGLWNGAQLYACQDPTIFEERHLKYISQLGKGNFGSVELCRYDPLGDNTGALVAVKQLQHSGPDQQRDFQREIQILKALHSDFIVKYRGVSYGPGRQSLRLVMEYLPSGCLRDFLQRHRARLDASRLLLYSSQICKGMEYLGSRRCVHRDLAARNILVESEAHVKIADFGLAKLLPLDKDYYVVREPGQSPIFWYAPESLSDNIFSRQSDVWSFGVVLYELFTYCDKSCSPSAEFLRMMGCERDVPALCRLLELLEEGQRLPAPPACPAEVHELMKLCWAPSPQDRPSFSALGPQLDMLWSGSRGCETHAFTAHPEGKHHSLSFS
# Summary of the method: as §1
# [4] = target: KDR (VEGFR2) (Homo sapiens, UniProt P35968)
# Summary of the method: as §1
# [5] = target: MAPK1 (ERK2) (Homo sapiens, UniProt P28482)
# Summary of the method: as §1
# [6] = target: MARK2 (Homo sapiens, UniProt Q7KZI7)
# Summary of the method: as §1
# [7] = target: PAK4 (Homo sapiens, UniProt O96013)
# Summary of the method: as §1
# [8] = target: PRKACA (PKA) (Homo sapiens, UniProt P17612)
# Summary of the method: as §1
# Sequence of EPHA2 (P29317 24-976, species assumed): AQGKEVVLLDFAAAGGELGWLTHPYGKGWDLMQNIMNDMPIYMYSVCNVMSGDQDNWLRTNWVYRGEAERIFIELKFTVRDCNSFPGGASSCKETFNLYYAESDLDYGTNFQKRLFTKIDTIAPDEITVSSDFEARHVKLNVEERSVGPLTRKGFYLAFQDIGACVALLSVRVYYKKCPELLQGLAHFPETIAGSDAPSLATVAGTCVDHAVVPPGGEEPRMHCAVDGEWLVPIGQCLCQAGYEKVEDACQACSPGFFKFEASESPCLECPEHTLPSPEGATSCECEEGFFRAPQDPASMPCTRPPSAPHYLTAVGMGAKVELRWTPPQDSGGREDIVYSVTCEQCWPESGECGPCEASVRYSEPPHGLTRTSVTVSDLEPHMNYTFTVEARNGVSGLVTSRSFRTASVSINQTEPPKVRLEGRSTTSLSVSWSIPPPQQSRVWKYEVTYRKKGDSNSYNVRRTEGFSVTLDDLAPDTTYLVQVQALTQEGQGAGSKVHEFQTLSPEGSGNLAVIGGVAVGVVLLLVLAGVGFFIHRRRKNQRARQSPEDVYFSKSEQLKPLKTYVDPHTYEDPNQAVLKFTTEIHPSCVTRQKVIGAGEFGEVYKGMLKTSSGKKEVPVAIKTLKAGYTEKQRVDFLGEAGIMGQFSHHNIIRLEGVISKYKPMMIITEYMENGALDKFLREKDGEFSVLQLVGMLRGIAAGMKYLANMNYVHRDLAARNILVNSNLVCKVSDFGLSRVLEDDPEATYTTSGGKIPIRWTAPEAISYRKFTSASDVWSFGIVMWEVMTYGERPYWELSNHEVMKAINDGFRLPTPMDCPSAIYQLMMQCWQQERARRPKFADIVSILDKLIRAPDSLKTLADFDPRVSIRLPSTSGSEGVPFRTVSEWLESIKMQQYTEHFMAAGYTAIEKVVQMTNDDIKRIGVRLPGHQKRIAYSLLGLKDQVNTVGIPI
# Sequence of MARK2 (Q7KZI7 whole entry, species assumed): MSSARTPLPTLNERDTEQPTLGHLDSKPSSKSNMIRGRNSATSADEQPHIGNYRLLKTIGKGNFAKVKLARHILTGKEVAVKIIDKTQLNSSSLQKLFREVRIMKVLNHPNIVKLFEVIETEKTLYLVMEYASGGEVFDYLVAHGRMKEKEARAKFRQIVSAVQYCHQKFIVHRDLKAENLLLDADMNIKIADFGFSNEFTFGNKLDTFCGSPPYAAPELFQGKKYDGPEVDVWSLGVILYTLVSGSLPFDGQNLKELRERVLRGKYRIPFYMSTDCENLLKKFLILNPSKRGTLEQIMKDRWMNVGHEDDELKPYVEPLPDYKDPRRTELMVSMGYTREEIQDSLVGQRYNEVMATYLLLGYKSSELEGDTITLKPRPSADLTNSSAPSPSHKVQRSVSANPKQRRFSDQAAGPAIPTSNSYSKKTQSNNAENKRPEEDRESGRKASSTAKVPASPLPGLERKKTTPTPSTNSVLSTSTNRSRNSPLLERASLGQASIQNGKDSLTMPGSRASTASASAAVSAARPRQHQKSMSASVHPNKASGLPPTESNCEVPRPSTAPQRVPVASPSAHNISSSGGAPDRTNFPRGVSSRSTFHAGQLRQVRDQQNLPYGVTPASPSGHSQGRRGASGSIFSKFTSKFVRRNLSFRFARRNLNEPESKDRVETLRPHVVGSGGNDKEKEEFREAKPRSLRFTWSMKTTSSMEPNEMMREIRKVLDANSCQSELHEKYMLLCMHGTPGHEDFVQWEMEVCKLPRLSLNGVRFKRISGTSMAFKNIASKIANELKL
# Sequence of MAPK1 (ERK2) (P28482 whole entry, species assumed): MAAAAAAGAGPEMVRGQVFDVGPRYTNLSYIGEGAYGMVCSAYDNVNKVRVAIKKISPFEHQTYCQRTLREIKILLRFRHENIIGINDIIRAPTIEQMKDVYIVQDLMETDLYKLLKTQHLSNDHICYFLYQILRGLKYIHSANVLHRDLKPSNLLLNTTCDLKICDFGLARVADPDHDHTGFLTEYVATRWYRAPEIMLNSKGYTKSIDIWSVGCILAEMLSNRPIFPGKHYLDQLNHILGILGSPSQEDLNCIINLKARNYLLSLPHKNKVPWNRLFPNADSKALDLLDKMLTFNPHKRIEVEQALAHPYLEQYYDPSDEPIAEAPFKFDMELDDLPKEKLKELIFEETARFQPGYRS
# Sequence of KDR (VEGFR2) (P35968 20-1356, species assumed): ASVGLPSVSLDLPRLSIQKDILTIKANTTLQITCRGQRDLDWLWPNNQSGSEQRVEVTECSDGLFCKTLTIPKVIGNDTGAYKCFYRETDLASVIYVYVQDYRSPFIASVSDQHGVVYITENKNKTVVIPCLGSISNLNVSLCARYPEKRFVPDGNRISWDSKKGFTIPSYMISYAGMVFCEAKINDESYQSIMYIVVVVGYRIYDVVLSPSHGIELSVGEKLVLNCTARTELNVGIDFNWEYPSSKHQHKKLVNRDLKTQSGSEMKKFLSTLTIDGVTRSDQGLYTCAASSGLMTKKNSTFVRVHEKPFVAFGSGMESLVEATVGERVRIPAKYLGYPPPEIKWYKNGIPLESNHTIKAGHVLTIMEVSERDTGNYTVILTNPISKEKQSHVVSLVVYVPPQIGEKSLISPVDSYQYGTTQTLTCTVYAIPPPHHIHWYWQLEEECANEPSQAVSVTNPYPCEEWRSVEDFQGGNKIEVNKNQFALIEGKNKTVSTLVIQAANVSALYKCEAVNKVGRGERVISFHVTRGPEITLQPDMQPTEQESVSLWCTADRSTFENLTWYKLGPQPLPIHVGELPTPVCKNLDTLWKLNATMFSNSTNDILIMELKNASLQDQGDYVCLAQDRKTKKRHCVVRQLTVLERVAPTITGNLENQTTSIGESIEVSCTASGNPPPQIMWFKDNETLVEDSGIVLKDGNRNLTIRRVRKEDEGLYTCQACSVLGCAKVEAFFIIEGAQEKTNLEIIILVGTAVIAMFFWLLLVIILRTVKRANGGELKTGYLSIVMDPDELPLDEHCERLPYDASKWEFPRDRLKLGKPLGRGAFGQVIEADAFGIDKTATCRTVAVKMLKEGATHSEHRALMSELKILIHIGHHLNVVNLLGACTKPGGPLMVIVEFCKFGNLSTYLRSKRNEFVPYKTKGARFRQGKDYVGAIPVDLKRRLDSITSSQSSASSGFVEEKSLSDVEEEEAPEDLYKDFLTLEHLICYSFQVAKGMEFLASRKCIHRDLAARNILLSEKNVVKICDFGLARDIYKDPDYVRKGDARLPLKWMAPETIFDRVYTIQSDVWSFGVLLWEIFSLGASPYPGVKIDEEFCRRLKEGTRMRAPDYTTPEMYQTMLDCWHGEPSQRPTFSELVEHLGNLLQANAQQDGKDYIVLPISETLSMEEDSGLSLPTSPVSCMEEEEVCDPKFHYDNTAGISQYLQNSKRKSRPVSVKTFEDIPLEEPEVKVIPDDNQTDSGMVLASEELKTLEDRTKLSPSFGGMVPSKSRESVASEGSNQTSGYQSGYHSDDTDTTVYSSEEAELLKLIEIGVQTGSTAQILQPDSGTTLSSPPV
# Sequence of PAK4 (O96013 whole entry, species assumed): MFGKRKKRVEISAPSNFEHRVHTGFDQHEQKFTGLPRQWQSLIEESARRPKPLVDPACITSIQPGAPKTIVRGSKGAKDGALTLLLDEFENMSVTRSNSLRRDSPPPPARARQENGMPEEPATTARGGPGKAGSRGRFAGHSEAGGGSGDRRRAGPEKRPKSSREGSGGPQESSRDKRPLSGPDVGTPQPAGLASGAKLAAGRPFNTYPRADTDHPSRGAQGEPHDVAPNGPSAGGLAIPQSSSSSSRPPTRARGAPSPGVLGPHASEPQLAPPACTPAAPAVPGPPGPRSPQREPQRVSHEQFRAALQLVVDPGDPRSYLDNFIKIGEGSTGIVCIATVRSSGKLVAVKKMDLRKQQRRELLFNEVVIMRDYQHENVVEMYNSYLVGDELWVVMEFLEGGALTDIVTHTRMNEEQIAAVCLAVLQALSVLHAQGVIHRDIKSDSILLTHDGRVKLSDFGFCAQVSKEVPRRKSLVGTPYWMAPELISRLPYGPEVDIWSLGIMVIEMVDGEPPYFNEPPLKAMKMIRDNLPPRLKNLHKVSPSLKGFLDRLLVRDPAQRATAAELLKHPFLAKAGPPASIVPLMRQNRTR
# Sequence of BTK (Q06187 whole entry, species assumed): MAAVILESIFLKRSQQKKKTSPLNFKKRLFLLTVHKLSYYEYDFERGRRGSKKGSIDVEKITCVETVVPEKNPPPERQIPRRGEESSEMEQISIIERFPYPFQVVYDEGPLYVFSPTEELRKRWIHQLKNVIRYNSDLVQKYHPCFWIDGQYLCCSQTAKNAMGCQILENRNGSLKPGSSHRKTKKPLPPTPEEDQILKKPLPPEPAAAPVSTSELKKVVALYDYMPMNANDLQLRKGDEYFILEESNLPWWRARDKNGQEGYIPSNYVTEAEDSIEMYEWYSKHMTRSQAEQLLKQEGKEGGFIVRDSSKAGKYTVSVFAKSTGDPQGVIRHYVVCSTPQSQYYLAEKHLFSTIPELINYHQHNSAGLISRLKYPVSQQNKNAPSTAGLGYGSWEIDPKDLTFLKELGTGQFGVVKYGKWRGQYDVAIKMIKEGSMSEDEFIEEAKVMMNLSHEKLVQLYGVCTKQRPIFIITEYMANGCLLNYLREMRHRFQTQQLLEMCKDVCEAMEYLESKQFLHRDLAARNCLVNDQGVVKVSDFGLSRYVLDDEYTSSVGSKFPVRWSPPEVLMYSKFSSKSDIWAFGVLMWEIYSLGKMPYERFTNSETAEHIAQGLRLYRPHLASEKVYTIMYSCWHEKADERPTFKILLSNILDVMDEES
SMILES,inhibition at 10 µM [1] [%],inhibition at 10 µM [2] [%],inhibition at 10 µM [3] [%],inhibition at 10 µM [4] [%],inhibition at 10 µM [5] [%],inhibition at 10 µM [6] [%],inhibition at 10 µM [7] [%],inhibition at 10 µM [8] [%]
Nc1ncnc2c1ncn2[C@@H]1O[C@H](COC(=O)NCCCc2nc3ccccc3[nH]2)[C@@H](O)[C@H]1O [Compound C1],9,8,-2,-6,7,3,15,21
C[C@@H](NC(=O)OC[C@H]1O[C@@H](n2cnc3c(N)ncnc32)[C@H](O)[C@@H]1O)c1ccc(Cl)cc1 [Compound C4],2,4,6,4,8,20,12,20
Nc1ncnc2c1ncn2[C@@H]1O[C@H](COC(=O)NC[C@H](O)CO)[C@@H](O)[C@H]1O [Compound C8],4,12,-2,0,16,10,19,43
Nc1ncnc2c1ncn2[C@@H]1O[C@H](COC(=O)N2CCC[C@H]2CO)[C@@H](O)[C@H]1O [Compound C9],9,5,-8,-3,11,6,1,-6
Nc1ncnc2c1ncn2[C@@H]1O[C@H](COC(=O)N[C@@H]2CCN(Cc3ccccc3)C2)[C@@H](O)[C@H]1O [Compound C10],7,9,-2,8,8,8,14,10
Nc1ncnc2c1ncn2[C@@H]1O[C@H](COC(=O)N2CCN(Cc3ccccc3)CC2CO)[C@@H](O)[C@H]1O (some centres unmarked) [Compound C13],9,3,1,-3,10,11,7,-1
CC(C)N1CCC(NC(=O)OC[C@H]2O[C@@H](n3cnc4c(N)ncnc43)[C@H](O)[C@@H]2O)CC1 [Compound C19],-1,7,-2,-10,7,7,3,4
Nc1ncnc2c1ncn2[C@@H]1O[C@H](COC(=O)NCCN2CCCC2=O)[C@@H](O)[C@H]1O [Compound C22],-1,1,-8,-7,9,8,7,0
Nc1ncnc2c1ncn2[C@@H]1O[C@H](COC(=O)N2CCN(CCc3ccccc3)CC2)[C@@H](O)[C@H]1O [Compound C26],0,-1,-7,-3,11,18,6,-1
CN1CCN(CCNC(=O)OC[C@H]2O[C@@H](n3cnc4c(N)ncnc43)[C@H](O)[C@@H]2O)CC1 [Compound C46],0,3,2,-7,9,4,4,3
Nc1ncnc2c1ncn2[C@@H]1O[C@H](COC(=O)N2CCC(Cc3ccc(F)cc3)C2)[C@@H](O)[C@H]1O (some centres unmarked) [Compound C66],11,9,0,3,9,-4,10,1
N#CCCN1CCN(C(=O)OC[C@H]2O[C@@H](n3cnc4c(N)ncnc43)[C@H](O)[C@@H]2O)CC1 [Compound C70],1,4,-8,-12,16,6,4,-4
CN(C)CCNC(=O)OC[C@H]1O[C@@H](n2cnc3c(N)ncnc32)[C@H](O)[C@@H]1O [Compound C85],0,4,-12,2,8,4,1,-2
Nc1ncnc2c1ncn2[C@@H]1O[C@H](COC(=O)N2CCN(C(=O)N3CCOCC3)CC2)[C@@H](O)[C@H]1O [Compound C89],4,6,2,-6,9,-3,-4,-1
CS(=O)(=O)N1CC2(CCN(C(=O)OC[C@H]3O[C@@H](n4cnc5c(N)ncnc54)[C@H](O)[C@@H]3O)CC2)c2ccccc21 [Compound C98],16,5,-1,8,16,2,7,-2
Nc1ncnc2c1ncn2[C@@H]1O[C@H](COC(=O)N2CCS(=O)(=O)CC2)[C@@H](O)[C@H]1O [Compound C100],-5,4,-2,-3,13,15,2,-3
